For 1 molecule, IC50 results are on record in patent US10273234B2, “Compounds that are S1P modulating agents and/or ATX modulating agents” (BIOGEN MA INC., priority 2012, dated 2019).

In this test the target is human S1P4 (Homo sapiens (Human), UniProt O95977). Description: Calcium mobilization (calcium flux) assay, antagonist format, S1P4. Type of test: cell-based. As to conditions: recombinant CHEM cells expressing human S1P4; FLIPR Calcium 4 dye; stimulated with EC80 of reference agonist. The method, then:
Compounds that are not specific for a particular S1P receptor can cause undesirable side effects. Accordingly, compounds are tested to identify those that are specific. Accordingly, the test compounds are tested in a calcium mobilization assay/S1P receptor activity assay. The procedure is essentially as described in Davis et al. (2005) Journal of Biological Chemistry, vol. 280, pp. 9833-9841, which is incorporated by reference in its entirety with the following modifications. Calcium mobilization assays are performed in recombinant CHEM cells expressing human S1P1, S1P2, S1P3, S1P4, or S1P5 purchased from Millipore (Billerica, Mass.). To detect free intracellular calcium, S1P1, S1P2, S1P3, S1P4, or S1P5 cells are loaded with FLIPR Calcium 4 dye from Molecular Devices (Sunnyvale, Calif.). Cells are imaged for calcium mobilization using a FLIPR^TETRA equipped with a 96-well dispense head. […]
Assay was read for 180 seconds using the FLIPR^TETRA (This assay run added sample compounds and reference agonist to respective wells). […]
Using the EC80 values determined during the agonist assay, stimulated all pre-incubated sample compound and reference antagonist (if applicable) wells with EC80 of reference agonist. Read for 180 seconds using the FLIPR^TETRA (This assay added reference agonist to respective wells—then fluorescence measurements were collected to calculate percentage inhibition values).

Molecules are shown by their SMILES.

human S1P4, sequence (O95977 whole entry): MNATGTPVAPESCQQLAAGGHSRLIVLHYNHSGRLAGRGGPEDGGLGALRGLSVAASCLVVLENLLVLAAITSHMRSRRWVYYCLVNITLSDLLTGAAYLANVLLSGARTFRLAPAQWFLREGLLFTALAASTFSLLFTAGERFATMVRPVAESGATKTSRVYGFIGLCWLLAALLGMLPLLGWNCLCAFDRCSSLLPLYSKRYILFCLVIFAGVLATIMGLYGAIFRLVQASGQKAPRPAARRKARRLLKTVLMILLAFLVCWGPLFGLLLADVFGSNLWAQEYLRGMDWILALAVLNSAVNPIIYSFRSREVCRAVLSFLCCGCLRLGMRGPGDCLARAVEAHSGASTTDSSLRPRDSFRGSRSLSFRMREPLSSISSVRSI

On to `CC(C)(C)[C@H]1CC[C@H](Oc2cccc3c(CN4CCC(C(=O)O)CC4)cccc23)CC1` [Example 30, 1-((5-((trans-4-(tert-butyl)cyclohexyl)oxy)naphthalen-1-yl)methyl)piperidine-4-carboxylic acid], for which the half-maximal inhibitory concentration (IC50) was not above 250 nM.

One may read the IC50 as the concentration that gives 50% inhibition.
